pIC50: −log10 of the molar value. Each block holds one molecule with its values, some of them ahead of it.
How the values were obtained:
CDK9/cyclin T = target: T1, CDK9/cyclin T (Homo sapiens, UniProt P50750); test: Kinase assay CDK9/cyclin T; assay type: biochemical; settings: 15 μM ATP, 30° C., pRB fragment substrate
T1 construct: host or cells: insect cells
Protocol: (§1) Assaying is carried out with 1 mg histone H1/ml, in the presence of 15 μm [γ-^33P]ATP (3000 Ci/mmol; 10 mCi/ml) in a final volume of 30 μl. After incubating at 30° C. for 30 min, 25 μl aliquots of supernatant were deposited on 2.5×3 cm pieces of Whatman P8 phosphocellulose papers and then, 20 sec. later, the filters were washed 5 times in a solution of 10 ml of phosphoric acid/liter. The filters are subsequently counted in the presence of 1 ml of ACS (Amersham).
(§2) The mean inhibitory concentration IC50 values were calculated from the dose/response curves and are listed in μM in the following table I.

Erk2 = Erk2 (Homo sapiens, UniProt P28482); test: Kinase assay Erk2; assay type: biochemical; settings: 15 μM ATP, 30° C.
Protocol: as §2

DYRK1A = target: T2, DYRK1A (Homo sapiens, UniProt Q13627); test: Kinase assay DYRK1A; assay type: biochemical; settings: 15 μM ATP, 30° C.
T2 construct: host or cells: E. coli
Protocol: as §1
DYRK1A (human, recombinant, expressed in E. coli cells) is assayed like CDK1/cyclin B.
as §2

[1] = system: B2 lymphocytes originating from patients; test: Induction of cell death of B chronic lymphoid leukemia cells (B2 lymphocytes) from patients; assay type: cell-based, human; settings: B2 lymphocytes from CLL patients, MTS reduction / LDH release
Protocol: The B2 lymphocytes are lymphocytes involved in […] chronic lymphoid leukemia.
Cell viability is determined by the reduction of 3-(4,5-dimethylthiazol-2-yl)-5-(3-carboxymethoxyphenyl)-2-(4-sulfophenyl)-2H-tetrazolium (MTS).
Cell death is determined by the measurement of the level of the activity of the lactate dehydrogenase (LDH) released during lysis of the cells. The two processes are described in detail in “Ribas J. and Boix J. Cell differentiation, caspase inhibition, and macromolecular synthesis blockage, but not BCL-2 or BCL-XL proteins protect SH-SY5Y cells from apoptosis triggered by two CDK inhibitory drugs.
In table 2, the values shown are the mean inhibitory concentration IC50 values, expressed in μM.

CK1δ/e = test: Kinase assay CK1; settings: read-out: IC50 CK1; 15 μM ATP, 30° C., buffer A
Solubility in water = assay type: physicochemical
GSK-3 α/β = test: Kinase assay GSK-3α/β; assay type: biochemical, pig; settings: 15 μM ATP, 30° C., buffer A, GS-1 substrate
Protocol: as §1, with “After” for “Assaying is carried out with 1 mg histone H1/ml, in the presence of 15 μm [γ-^33P]ATP (3000 Ci/mmol; 10 mCi/ml) in a final volume of 30 μl. After”
as §2

B-CLL = B-CLL patients; cited from earlier work

Erk2, sequence (P28482 whole entry, species assumed): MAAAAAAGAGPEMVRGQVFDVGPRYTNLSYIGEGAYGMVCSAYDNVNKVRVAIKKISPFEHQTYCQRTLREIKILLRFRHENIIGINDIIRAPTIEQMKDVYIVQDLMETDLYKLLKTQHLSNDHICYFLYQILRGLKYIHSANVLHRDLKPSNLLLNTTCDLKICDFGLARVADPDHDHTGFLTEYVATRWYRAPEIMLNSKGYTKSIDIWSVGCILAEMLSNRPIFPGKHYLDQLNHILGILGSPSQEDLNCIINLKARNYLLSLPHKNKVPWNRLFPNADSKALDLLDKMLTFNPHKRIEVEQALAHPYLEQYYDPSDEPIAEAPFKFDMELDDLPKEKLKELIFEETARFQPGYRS
T1 sequence (P50750 whole entry, the tested form may be a part): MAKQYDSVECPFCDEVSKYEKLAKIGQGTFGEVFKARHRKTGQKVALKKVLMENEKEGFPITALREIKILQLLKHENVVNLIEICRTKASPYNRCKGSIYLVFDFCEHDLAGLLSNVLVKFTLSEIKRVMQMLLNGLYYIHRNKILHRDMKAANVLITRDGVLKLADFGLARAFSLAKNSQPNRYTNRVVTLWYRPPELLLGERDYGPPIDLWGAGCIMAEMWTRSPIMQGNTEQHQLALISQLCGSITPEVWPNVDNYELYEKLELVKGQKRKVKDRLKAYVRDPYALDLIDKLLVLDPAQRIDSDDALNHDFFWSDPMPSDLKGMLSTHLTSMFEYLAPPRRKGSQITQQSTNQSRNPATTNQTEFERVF
T1 sequence (O60563 whole entry partner, the tested form may be a part): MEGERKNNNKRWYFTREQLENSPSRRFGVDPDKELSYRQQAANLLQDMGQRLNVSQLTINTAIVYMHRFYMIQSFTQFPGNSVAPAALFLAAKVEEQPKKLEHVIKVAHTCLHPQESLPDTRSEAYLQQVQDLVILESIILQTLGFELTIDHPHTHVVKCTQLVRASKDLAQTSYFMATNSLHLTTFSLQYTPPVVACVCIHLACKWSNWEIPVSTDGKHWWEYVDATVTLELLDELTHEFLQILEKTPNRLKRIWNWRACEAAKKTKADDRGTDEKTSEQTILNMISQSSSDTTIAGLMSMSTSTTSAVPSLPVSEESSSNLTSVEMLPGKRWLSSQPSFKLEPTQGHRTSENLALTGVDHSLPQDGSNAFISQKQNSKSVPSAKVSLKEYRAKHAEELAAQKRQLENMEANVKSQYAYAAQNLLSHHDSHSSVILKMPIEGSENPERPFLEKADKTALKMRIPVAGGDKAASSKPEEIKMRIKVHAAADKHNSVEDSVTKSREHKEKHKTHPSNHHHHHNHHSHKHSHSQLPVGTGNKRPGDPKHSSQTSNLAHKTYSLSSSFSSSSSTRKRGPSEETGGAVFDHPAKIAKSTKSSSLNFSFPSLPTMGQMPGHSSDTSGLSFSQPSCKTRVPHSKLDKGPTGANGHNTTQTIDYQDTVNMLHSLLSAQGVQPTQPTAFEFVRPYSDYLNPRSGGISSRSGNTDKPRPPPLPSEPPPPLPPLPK

pIC50 (CDK9/cyclin T): 6.74 | pIC50 (Erk2): 5.44 | pIC50 (DYRK1A): 5.44 | pIC50 (CK1δ/e): 6.40
Molecule: CC[C@H](CO)Nc1nc(NCc2ccc(-c3ccccn3)cc2)c2ncn(C(C)C)c2n1 [Compound of formula Ia]
pIC50 ([1]; Homo sapiens, Lymphocyte): 6.70

pIC50 (CDK9/cyclin T): 6.96 | pIC50 (Erk2): 5.68 | pIC50 (DYRK1A): 6.05 | pIC50 (CK1δ/e): 6.21 | solubility (Solubility in water): 3.3 µg/mL | pIC50 (GSK-3 α/β): ≤ 4.52
Molecule: CC[C@@H](CO)Nc1nc(NCc2ccc(-c3ccccn3)cc2)c2ncn(C(C)C)c2n1 [Compound of formula Ib]
pIC50 ([1]; Homo sapiens, Lymphocyte): 7.05

Molecule: CCC(CO)Nc1nc(NCc2ccc(-c3ccccc3)cc2)c2ncn(C(C)C)c2n1 (stereo not drawn) [Compound of formula Ic]
pIC50 ([1]; Homo sapiens, Lymphocyte): 5.90 | solubility (Solubility in water): 0.5 µg/mL

Molecule: CC(C)n1cnc2c(NCc3ccc(-c4ccccn4)cc3)nc(NC(CO)CO)nc21 [Compound of formula Id, 2-(1,3-Dihydroxyprop-2-ylamino)-6-[4-(2-pyridyl)phenylmethylamino]-9-isopropylpurine]
pIC50 ([1]; Homo sapiens, Lymphocyte): 6.60

Molecule: CC(C)[C@H](CO)Nc1nc(NCc2ccc(-c3ccccn3)cc2)c2ncn(C(C)C)c2n1 [Compound of formula Ie]
pIC50 ([1]; Homo sapiens, Lymphocyte): 6.29

Molecule: CC(C)[C@H](CO)Nc1nc(NCc2ccc(-c3ccccn3)cc2)c2ncn(C(C)C)c2n1 [Compound of formula If]
pIC50 [1]: 6.42

Molecule: alemtuzumab: therapeutic antibody against an antigen expressed on leukocytes and leukemic B lymphocytes of CLL
hematologic response (B-CLL): 33%
